Reference: article PMC9816206 (Archives of Toxicology, 2022)

Tests used:
V79 hamster cells = settings: metabolically incompetent V79 cells with or without human CYP450-3A4; ref Ebmeyer et al. [(2019]); cited from earlier work
[1] = tested on: cell cycle regulation and DNA damage repair; settings: transcriptomics approach; ref Abdelfatah et al. [2022]; cited from earlier work
[2] = tested on: HeLa H2B-GFP cells co-cultured with HepG2 cells; assay: Analysis of mitotic figures, HeLa H2B-GFP cells of the co-culture; format: cell-based, human; settings: for arrest in metaphase of mitosis (detectable as elevated mitotic index): vincristine 10 ng/ml (positive control); for arrest in metaphase of mitosis (detectable as elevated mitotic index) / mitotic index in co-culture: Las 10 µM, Rid 100 µM, Ep 160 µM, 28 h; for mitotic index in co-culture: vs DMSO solvent control
Procedure: (§1) The characterization of mitotic cells in fixed cell preparations was performed as described in Baudoin and Cimini [(2018]). […] Thereafter, cells were harvested and the microscopic slides prepared as described for micronucleus analysis. The mitotic index (MI; % cells in mitosis) was assessed by counting and adding up the number of cells in the mitotic stages prophase, metaphase, anaphase and telophase in 1000 cells.
(§2) Disturbed mitoses were defined as mitotic figures deviating from the typical appearance of mitoses and were assessed in 300 mitotic cells per slide. We classified the mitotic disturbances into the following categories (Figs. 2, 3):
(§3) Metaphase: no metaphase plate arrangement, non-congression of individual chromosomes to the metaphase plate, multipolar (tripolar and more than tripolar) arrangement of chromosomes and elongated chromosomes/chromatids.
(§4) Anaphase: bridges, lagging chromosome(s), combination of bridges and lagging chromosome, and multipolar (tripolar and more than tripolar) arrangement of chromosomes.
(§5) Telophase: same analysis as for anaphase cells.
(§6) If a cell harboured more than one type of disturbance, it was added to each category (e.g. multipolar, lagging chromosome(s) and bridges).

[3] = tested on: HeLa H2B-GFP cells co-cultured with HepG2 cells; assay: Micronucleus assay in co-culture after pretreatment with inhibitors of metabolic enzymes and efflux transporters; settings: then Las 10 µM, Rid 100 µM, vs no pretreatment
Procedure: Since the analysis was limited to HeLa H2B-GFP cells in these experiments, cytochalasin B (at final concentration 3 µg/ml) exposure was 20 h.
Transmembrane transporters may enhance or decrease PA-mediated effects. […] The idea was that metabolites formed in hepatocytes may not reach HeLa H2B-GFP cells to the same extent. […] Then, the co-culture was exposed to PAs for 28 h, followed by 3 µg/ml cytochalasin B for 20 h.

HSEC = settings: PAs metabolized by HepaRG human hepatocyte cells in Transwell co-culture; ref Lu et al. [2019]; cited from earlier work
HeLa H2B-GFP cells [4] = assay: Analysis of mitotic figures, HeLa H2B-GFP cells cultured alone; format: cell-based, human; settings: 28 h; Las 10 µM, Rid 100 µM, Ep 160 µM; vs DMSO solvent control
Procedure: as §1, §2, §3, §4, §5, §6

HeLa H2B-GFP cells [5] = assay: Cytokinesis-block micronucleus (CBMN) assay, HeLa H2B-GFP cells cultured alone; format: cell-based, human; settings: lasiocarpine 10 µM, riddelliine 100 µM, europine 320 µM; 28 h; vs solvent control (DMSO); n = 3
Procedure: (§7) The study of genomic damage was performed in a six-well plate in which one well consisted of only HepG2 cells, one well of only HeLa H2B-GFP cells and further wells containing both cell types in co-culture. To achieve this, 190, 000 of HeLa H2B-GFP cells per 3ml, 150,000 of HepG2 cells per 3ml and 40,000 HeLa H2B-GFP plus 150,000 HepG2 for the co-culture per 3ml were seeded and incubated overnight. As culture medium, the HepG2 cell medium was used for all cells. […] At this point, slides were coded and for each test sample micronuclei were scored in 1000 binucleated HeLa H2B-GFP cells in the co-culture and HeLa H2B-GFP cells, and in 1000 binucleated HepG2 cells in the HepG2 cell culture, at 400-fold magnification with an Eclipse 55i fluorescence microscope using a fluorescein isothiocyanate (FITC) filter (Nikon GmbH, Japan). The numbers of mononucleated cells (MN), binucleated cells (BN), trinucleated cells (TriN), and tetranucleated cells (TetraN) in 1000 cells were also scored. The cytokinesis-block proliferation index (CBPI) was calculated from that as a criterion for determining the cytotoxic effect using the following formula: CBPI=1×MN+2×BN+3×TriN+4×TetraN/MN+BN+TriN+TetraN.

[6] = tested on: HeLa H2B-GFP cells co-cultured with HepG2 cells; assay: Cytokinesis-block micronucleus (CBMN) assay, HeLa H2B-GFP cells scored in co-culture with HepG2; format: cell-based, human; settings: lasiocarpine 10 µM, riddelliine 100 µM, europine 320 µM; 28 h; vs solvent control (DMSO); n = 3
Procedure: as §7

HepG2 cells [7] = assay: Cytokinesis-block micronucleus (CBMN) assay, HepG2 cells cultured alone; format: cell-based, human; settings: lasiocarpine 10 µM, riddelliine 100 µM, europine 320 µM; 28 h; vs solvent control (DMSO); n = 3
Procedure: as §7

DNA [8] = tested on: DNA; design: method as in Hincks et al. [1991]; settings: ref Hincks et al. [1991]; cited from earlier work
HepG2 cells [9] = assay: Analysis of mitotic figures, HepG2 cells cultured alone; format: cell-based, human; settings: 28 h; Las 10 µM, Rid 100 µM, Ep 160 µM; vs DMSO solvent control
Procedure: as §1, §2, §3, §4, §5, §6

MRP2 efflux transporter = target: T1, MRP2 efflux transporter (Homo sapiens, UniProt Q92887); assay: MRP2 efflux transporter activity, intracellular calcein fluorescence retention; format: cell-based; settings: HepG2 cells; calcein substrate; benzbromarone 10 µM; data not shown
T1 construct: endogenous in cells; host or cells: HepG2
T1 sequence (Q92887 whole entry): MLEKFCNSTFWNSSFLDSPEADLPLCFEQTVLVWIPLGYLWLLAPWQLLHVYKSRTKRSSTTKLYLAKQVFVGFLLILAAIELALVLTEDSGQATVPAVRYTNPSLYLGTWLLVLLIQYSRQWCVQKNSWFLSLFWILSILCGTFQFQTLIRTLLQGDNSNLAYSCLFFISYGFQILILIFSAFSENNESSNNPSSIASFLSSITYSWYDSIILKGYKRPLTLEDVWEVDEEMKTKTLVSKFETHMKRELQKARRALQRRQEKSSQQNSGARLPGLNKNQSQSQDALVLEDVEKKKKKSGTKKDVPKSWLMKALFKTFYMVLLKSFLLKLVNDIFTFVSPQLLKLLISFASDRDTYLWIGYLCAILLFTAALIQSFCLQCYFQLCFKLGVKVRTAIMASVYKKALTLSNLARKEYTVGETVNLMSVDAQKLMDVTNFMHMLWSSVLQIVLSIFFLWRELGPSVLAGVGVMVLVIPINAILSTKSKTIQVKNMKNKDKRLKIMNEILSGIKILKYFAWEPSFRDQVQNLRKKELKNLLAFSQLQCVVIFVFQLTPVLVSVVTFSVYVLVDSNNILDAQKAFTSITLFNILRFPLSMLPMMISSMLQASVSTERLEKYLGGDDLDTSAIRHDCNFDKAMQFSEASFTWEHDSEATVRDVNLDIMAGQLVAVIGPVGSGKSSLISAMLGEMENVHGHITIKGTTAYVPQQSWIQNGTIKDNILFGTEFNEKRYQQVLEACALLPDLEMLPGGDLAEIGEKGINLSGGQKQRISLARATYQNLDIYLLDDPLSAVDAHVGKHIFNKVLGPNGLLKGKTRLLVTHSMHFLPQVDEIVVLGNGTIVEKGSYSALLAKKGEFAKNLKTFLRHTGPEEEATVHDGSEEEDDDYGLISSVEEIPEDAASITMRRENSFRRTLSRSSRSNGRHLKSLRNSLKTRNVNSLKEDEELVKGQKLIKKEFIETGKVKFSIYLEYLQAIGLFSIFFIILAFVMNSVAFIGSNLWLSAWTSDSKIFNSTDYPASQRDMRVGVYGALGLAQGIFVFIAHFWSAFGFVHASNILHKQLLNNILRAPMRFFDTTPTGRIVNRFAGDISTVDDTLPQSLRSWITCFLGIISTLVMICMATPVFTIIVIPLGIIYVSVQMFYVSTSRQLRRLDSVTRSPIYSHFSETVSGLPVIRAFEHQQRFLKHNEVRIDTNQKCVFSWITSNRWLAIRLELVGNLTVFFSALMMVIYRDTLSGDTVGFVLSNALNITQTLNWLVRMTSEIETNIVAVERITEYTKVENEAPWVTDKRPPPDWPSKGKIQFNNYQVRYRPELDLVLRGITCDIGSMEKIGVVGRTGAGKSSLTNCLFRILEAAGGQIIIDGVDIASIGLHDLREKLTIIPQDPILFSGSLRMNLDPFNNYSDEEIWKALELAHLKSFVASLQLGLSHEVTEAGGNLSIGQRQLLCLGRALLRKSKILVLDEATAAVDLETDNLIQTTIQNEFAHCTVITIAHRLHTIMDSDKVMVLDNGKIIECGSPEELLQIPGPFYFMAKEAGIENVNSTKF

DNA [10] = tested on: DNA; design: method as in Hadi et al. [2021]; settings: ref Hadi et al. [2021]; cited from earlier work

C/C=C(/C)C(=O)O[C@H]1CCN2CC=C(COC(=O)[C@@](O)([C@H](C)OC)C(C)(C)O)[C@H]12 [lasiocarpine]
genotoxicity in V79 hamster cells (V79 hamster cells): only genotoxic in metabolically incompetent V79 hamster cells if they had been genetically engineered to harbour human CYP450-3A4
interference with cell cycle regulation and DNA damage repair [1]: interfered with cell cycle regulation and DNA damage repair

CC[C@]1(O)C[C@H]2CN(CCc3c([nH]c4ccccc34)[C@@](C(=O)OC)(c3cc4c(cc3OC)N(C=O)[C@H]3[C@@](O)(C(=O)OC)[C@H](OC(C)=O)[C@]5(CC)C=CCN6CC[C@]43[C@@H]65)C2)C1 [vincristine, reference compound]
arrest in metaphase of mitosis (detectable as elevated mitotic index) [2]: arrest in metaphase of mitosis

C/C=C(/C)C(=O)O[C@@H]1CCN2CC=C(COC(=O)[C@@](O)([C@H](C)O)C(C)(C)O)[C@H]12 [echimidine]
interference with cell cycle regulation and DNA damage repair [1]: interfered with cell cycle regulation and DNA damage repair

CC(C)[C@](O)(C(=O)OCC1=CCN2CC[C@@H](O)[C@@H]12)[C@@H](C)O (stereo in doubt) [lycopsamine]
interference with cell cycle regulation and DNA damage repair [1]: interfered with cell cycle regulation and DNA damage repair

CC(=O)N1CCN(c2ccc(OCC3COC(Cn4ccnc4)(c4ccc(Cl)cc4Cl)O3)cc2)CC1 (centres unmarked) [ketoconazole]
lasiocarpine-, riddelliine- and europine-induced micronucleus formation after CYP450-3A4 inhibitor pretreatment ([3]; ketoconazole 1 µM 24 h pretreatment, Ep 320 µM for 28 h): significantly reduced

C=C/C1=C/[C@H](C)[C@](C)(OC(C)=O)C(=O)OC/C2=C/CN(C)CC[C@@H](OC1=O)C2=O [clivorine]
cytotoxicity in HSEC (HSEC): concentration-dependent cytotoxicity

C=C1C/C(=C/C)C(=O)O[C@@H]2CCN3CC=C(COC(=O)[C@@]1(O)CO)[C@H]23 [riddelliine]
mitotic index in HeLa H2B-GFP cells cultured alone (HeLa H2B-GFP cells [4]): did not cause significant alterations
micronucleus formation in HeLa H2B-GFP cells cultured alone (HeLa H2B-GFP cells [5]): not if cultured alone
micronucleus formation in HeLa H2B-GFP cells in the co-culture [6]: induced micronucleus formation significantly
micronucleus induction in HepG2 cells cultured alone (HepG2 cells [7]): induced micronuclei
DNA cross-linker potency (DNA [8]): more potent DNA cross-linker than heliosupine
mitotic index in HepG2 cells (HepG2 cells [9]): did not cause significant alterations
mitotic index in co-culture [2]: did not cause significant alterations
arrest in metaphase of mitosis (detectable as elevated mitotic index) [2]: not
interference with cell cycle regulation and DNA damage repair [1]: interfered with cell cycle regulation and DNA damage repair

CCc1oc2ccccc2c1C(=O)c1cc(Br)c(O)c(Br)c1 [benzbromarone]
lasiocarpine-, riddelliine- and europine-induced micronucleus formation in HeLa H2B-GFP cells after efflux transporter inhibitor pretreatment ([3]; verapamil 50 µM, benzbromarone 10 µM or both, 24 h pretreatment, Ep 160 µM for 28 h): significantly reduced
activity of MRP2 efflux transporter (calcein fluorescence retention) (MRP2 efflux transporter): significantly reduced

COC(C)C(O)(C(=O)OCC1=CCN2CCC(O)C12)C(C)(C)O (centres unmarked) [europine]
mitotic index in HeLa H2B-GFP cells cultured alone (HeLa H2B-GFP cells [4]): no change
micronucleus formation in HeLa H2B-GFP cells cultured alone (HeLa H2B-GFP cells [5]): not if cultured alone
micronucleus formation in HeLa H2B-GFP cells in the co-culture [6]: induced micronucleus formation significantly
micronucleus induction in HepG2 cells cultured alone (HepG2 cells [7]): induced micronuclei
mitotic index in HepG2 cells (HepG2 cells [9]): significantly decreased
induction of DNA cross-links (DNA [10]): did not
mitotic index in co-culture [2]: significantly decreased
ana-/telophase bridges ([2]; in 300 mitotic cells, Ep 160 µM compared with Las 10 µM and Rid 100 µM, concentrations causing a similar number of micronuclei): less ana-/telophase bridges than the two diesters
arrest in metaphase of mitosis (detectable as elevated mitotic index) [2]: not

C[C@H]1C(=O)O[C@@H]2CCN3CC=C(COC(=O)[C@](C)(O)[C@]1(C)O)[C@H]23 [monocrotaline]
cytotoxicity in HSEC (HSEC): concentration-dependent cytotoxicity
interference with cell cycle regulation and DNA damage repair [1]: interfered with cell cycle regulation and DNA damage repair
